52 molecules from US6958352B2, “Compounds for inhibiting insulin secretion and methods related thereto” (SmithKline Beecham Corporation, priority 2002, dated 2005) can be followed below.

The experiment has as its target T1, mitochondrial calcium/sodium antiporter (Rattus norvegicus, UniProt Q6AXS0).
T1 sequence (Q6AXS0 1-585): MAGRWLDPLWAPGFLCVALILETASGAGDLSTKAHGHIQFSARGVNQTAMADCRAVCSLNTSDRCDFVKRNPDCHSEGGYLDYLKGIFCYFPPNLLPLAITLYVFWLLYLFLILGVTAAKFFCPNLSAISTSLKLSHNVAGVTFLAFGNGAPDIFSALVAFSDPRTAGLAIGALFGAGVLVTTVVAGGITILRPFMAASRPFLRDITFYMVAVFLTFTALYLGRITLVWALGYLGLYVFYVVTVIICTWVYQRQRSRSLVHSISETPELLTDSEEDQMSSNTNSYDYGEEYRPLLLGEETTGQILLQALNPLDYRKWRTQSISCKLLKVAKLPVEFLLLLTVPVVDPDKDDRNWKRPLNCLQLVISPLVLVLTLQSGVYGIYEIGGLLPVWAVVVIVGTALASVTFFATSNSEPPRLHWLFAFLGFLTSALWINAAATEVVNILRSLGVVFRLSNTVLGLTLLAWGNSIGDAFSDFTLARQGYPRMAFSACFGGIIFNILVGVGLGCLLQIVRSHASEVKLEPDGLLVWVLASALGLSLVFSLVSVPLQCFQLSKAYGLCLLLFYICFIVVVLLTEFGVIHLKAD
In words: Inhibition of mitochondrial calcium/sodium antiporter activity (NaCl-induced mitochondrial calcium efflux, calcium green 5N fluorescence). Format: cell-based. As to conditions: digitonin-permeabilized INS-1 cells, 20 mM NaCl. The protocol: INS-1 rat insulinoma cells (see Example 16) were harvested by trypsinization, washed and resuspended at 10×10^6 cells/ml in assay buffer (250 mM sucrose, 10 mM HEPES, 2.5 mM K2HPO4, 5 mM succinate, pH 7.4) containing 0.007% digitonin, 60 μM CaCl2 and 0.05 μM calcium green 5N (Molecular Probes, Inc., Eugene, Oreg.). After a five-minute calcium loading incubation, ruthenium red (1 μM; Sigma, St. Louis, Mo.) was added to block further calcium uptake by mitochondria. Cell suspensions were dispensed into 96-well plates (100 μl per well, 1×10^6 cells per well) and candidate agents (i.e., candidate mitochondrial calcium/sodium antiporter inhibitors) were added to some sets of triplicate wells at concentrations of 1, 10 or 100 μM, while other sets of wells provided appropriate control conditions (e.g., buffer and vehicle controls). Baseline fluorescence measurements were made using a multiwell plate fluorimeter (F-MAX™, Molecular Devices Corp., Sunnyvale, Calif.; or PolarStar™, BMG Labtechnologies, Inc., Durham, N.C.) according to the manufacturer's instructions. Calcium efflux from mitochondria was then induced by adding NaCl to all wells to achieve a final concentration of 20 mM, and the rate of change in fluorescence in each well was monitored […] for two minutes and quantified using software included with the plate reader.

[1] abbreviates: Table 2, preferred compounds, read-out: IC50 ≦ 10 μM.
Where [2] appears, read: Table 3, more preferred compounds, read-out: IC50 ≦ 1 μM.

pIC50: −log10 of the molar value. Where two headings read alike, the source gives them in different places.

For the molecule `CN(C)CCCNC(=O)CSC(c1cc(Cl)ccc1N)c1ccccc1Cl` (stereo not drawn) [Compound 13q], the pIC50 under setting [1] is not below 5.00.

For the molecule `COc1ccc(C(=O)NCCSC(CC(C)C)c2cc(Cl)ccc2N)cc1OC` (stereo not drawn) [Compound 16aa], the pIC50 under setting [2] is not below 6.00.

Take `Nc1ccc(Br)cc1C(CSCc1nc2ccccc2[nH]1)c1ccccc1F` (stereo not drawn) [Compound 37a]: under setting [1], the pIC50 is not below 5.00.

With `COc1ccc(C(=O)NCCSC(c2cc(Cl)ccc2N)c2ccccc2Cl)cc1OC` (stereo not drawn) [Compound 16d], the pIC50 was not below 5.00 under setting [1] and not below 6.00 under setting [2].

With `CNC(=O)CSCC(c1cc(Cl)ccc1N)c1ccccc1Cl` (stereo not drawn) [Compound 21e], the negative logarithm of the IC50 (pIC50) under setting [1] was not below 5.00 and the pIC50 under setting [2] was not below 6.00.

Take `CNC(=O)C(c1cccc(Cl)c1)c1ccccc1[N+](=O)[O-]` (stereo not drawn) [Compound 26a]: under setting [1], the negative-log IC50 (pIC50) is not below 5.00.

As for `Nc1ccc(Cl)cc1C(SCCNC(=O)c1cccnc1)C1CCCCC1` (stereo not drawn) [Compound 16t], the pIC50 under setting [2] was not below 6.00.

For the molecule `Nc1ccc(Cl)cc1C(SCC(=O)N1CCN(c2ccccc2)CC1)c1ccccc1Cl` (stereo not drawn) [Compound 13j], the pIC50 runs as follows: under setting [1], not below 5.00; under setting [2], not below 6.00.

With `COC(=O)CSC(c1ccccc1N)c1ccccc1Cl` (stereo not drawn) [Compound 11r], the negative-log IC50 (pIC50) under setting [1] is not below 5.00.

`O=[N+]([O-])c1ccccc1C(CNCCc1ccccc1)c1cccc(Cl)c1` (stereo not drawn) [Compound 27b]: the pIC50 was not below 6.00 (IC50 ≦ 1 μM, Table 3, more preferred compounds) and not below 5.00 (IC50 ≦ 10 μM, Table 2, preferred compounds).

As to `COc1cc(C(=O)NCCSC(CC(C)C)c2cc(Cl)ccc2N)cc(OC)c1OC` (stereo not drawn) [Compound 16ac], the pIC50 under setting [2] is not below 6.00.

Consider `Cc1cc(C)cc(C(SCc2nc(C)no2)c2cc(Cl)ccc2N)c1` (stereo not drawn) [Compound 14d], for which the negative logarithm of the IC50 (pIC50) under setting [1] was not below 5.00.

For `Cc1noc(CSCC(c2cc(Br)ccc2N)c2ccccc2F)n1` (stereo not drawn) [Compound 22c], the pIC50 under setting [1] is not below 5.00.

As to `Nc1ccc(Cl)cc1C(c1ccccc1Cl)[S+]([O-])CC(=O)NCC(c1ccccc1)c1ccccc1` (stereo not drawn) [Compound 38c], the pIC50 was not below 5.00 under setting [1] and not below 6.00 under setting [2].

On to `NCCOCCOCCNC(=O)CSC(c1cc(Cl)ccc1N)c1ccccc1Cl` (stereo not drawn) [Compound 13v], for which the pIC50 reads like this: under setting [1], not below 5.00; under setting [2], not below 6.00.

Regarding `CCOC(=O)C(c1ccccc1C)c1ccccc1[N+](=O)[O-]` (stereo not drawn) [Compound 25b], the pIC50 runs as follows: under setting [1], not below 5.00; under setting [2], not below 6.00.

`CC(C)C(=O)NCCSC(c1cc(Cl)ccc1N)c1ccccc1Cl` (stereo not drawn) [Compound 16j]: the pIC50 by setting is: under setting [1], not below 5.00; under setting [2], not below 6.00.

As for `COC(=O)CSCC(c1cc(Cl)ccc1N)c1ccccc1Cl` (stereo not drawn) [Compound 20a], under setting [1], the negative-log IC50 (pIC50) is not below 5.00.

`COc1ccc(NC(=O)NCCSC(c2cc(Cl)ccc2N)C2CCCCC2)cc1OC` (stereo not drawn) [Compound 17j]: under setting [2], the pIC50 is not below 6.00.

Regarding `CNC(=O)CSCC(c1ccccc1)c1cc(Cl)ccc1N` (stereo not drawn) [Compound 21h], the pIC50 was not below 5.00 under setting [1] and not below 6.00 under setting [2].

Regarding `CCCCCCNC(=O)CSC(c1cc(Cl)ccc1N)c1ccccc1Cl` (stereo not drawn) [Compound 13l], the pIC50 by setting is: under setting [1], not below 5.00; under setting [2], not below 6.00.

`COC(=O)CN(C)CC(c1cccc(Cl)c1)c1ccccc1[N+](=O)[O-]` (stereo not drawn) [Compound 28a]: under setting [1], the pIC50 is not below 5.00.

In the case of `Nc1ccc(Cl)cc1C(SCc1nc(-c2ccc(F)cc2)no1)c1ccccc1Cl` (stereo not drawn) [Compound 14a], the negative logarithm of the IC50 (pIC50) under setting [1] is not below 5.00.

For the molecule `Nc1ccc(Cl)cc1C(SCCNC(=O)C1CCCCC1)c1ccccc1Cl` (stereo not drawn) [Compound 16i], the pIC50 is not below 5.00 under setting [1] and not below 6.00 under setting [2].

For the molecule `Nc1ccc(Cl)cc1C(SCCNC(=O)c1cn[nH]c1)C1CCCCC1` (stereo not drawn) [Compound 16v], the negative-log IC50 (pIC50) under setting [1] was not below 5.00.

Consider `COc1cc(C(=O)NCCSC(c2cc(Cl)ccc2N)C2CCCCC2)cc(OC)c1O` (stereo not drawn) [Compound 16p], for which the negative-log IC50 (pIC50) under setting [1] was not below 5.00.

`NC(=O)CSCC(c1cc(Cl)ccc1N)c1ccccc1Cl` (stereo not drawn) [Compound 21a]: under setting [1], the pIC50 was not below 5.00.

`COC1CCC(C(=O)NCCSC(c2cc(Cl)ccc2N)c2ccccc2Cl)CC1` (stereo not drawn) [Compound 16f]: the negative-log IC50 (pIC50) under setting [1] was not below 5.00 and the pIC50 under setting [2] is not below 6.00.

As to `Cc1noc(CSCC(c2ccccc2)c2cc(Cl)ccc2N)n1` (stereo not drawn) [Compound 22d], the negative-log IC50 (pIC50) was not below 5.00 under setting [1] and not below 6.00 under setting [2].

Take `COC(=O)C(c1ccccc1)c1ccccc1[N+](=O)[O-]` (stereo not drawn) [Compound 25c]: the pIC50 under setting [1] was not below 5.00.

Take `COc1cc(C(=O)N2CCC(CSC(c3cc(Cl)ccc3N)C3CCCCC3)CC2)cc(OC)c1OC` (stereo not drawn) [Compound 41a]: under setting [1], the negative-log IC50 (pIC50) was not below 5.00.

For `COC(=O)CCSC(c1cc(Cl)ccc1N)c1ccccc1Cl` (stereo not drawn) [Compound 15e], the negative logarithm of the IC50 (pIC50) is not below 5.00 under setting [1] and not below 6.00 under setting [2].

On to `Nc1ccc(Cl)cc1C(SCC(=O)NC1CCCCC1)c1ccccc1Cl` (stereo not drawn) [Compound 13h], for which the pIC50 runs as follows: under setting [1], not below 5.00; under setting [2], not below 6.00.

`Nc1ccc(Cl)cc1C(SCC(=O)NC1CC1)c1ccccc1Cl` (stereo not drawn) [Compound 13r]: the negative logarithm of the IC50 (pIC50) was not below 5.00 under setting [1] and not below 6.00 under setting [2].

`Nc1ccc(Cl)cc1C(SCC(=O)NCCCn1ccnc1)c1ccccc1Cl` (stereo not drawn) [Compound 13p]: the pIC50 under setting [1] was not below 5.00 and the negative-log IC50 (pIC50) under setting [2] is not below 6.00.

As for `CNC(=O)CSCC(c1cc(Br)ccc1N)c1ccccc1F` (stereo not drawn) [Compound 21g], the pIC50 under setting [1] is not below 5.00.

Turning to `COc1ccc(NC(=O)NCCSC(c2cc(Cl)ccc2N)C2CCCCC2)c(OC)c1` (stereo not drawn) [Compound 17g], the negative-log IC50 (pIC50) under setting [2] was not below 6.00.

For `Cc1noc(CSC(c2ccc(C)c(C)c2)c2cc(Cl)ccc2N)n1` (stereo not drawn) [Compound 14l], under setting [1], the pIC50 was not below 5.00.

In the case of `COc1ccc(NC(=S)NCCSC(c2cc(Cl)ccc2N)C2CCCCC2)c(OC)c1` (stereo not drawn) [Compound 17k], the pIC50 under setting [2] is not below 6.00.

Regarding `COc1ccc(C(=O)NCCSC(c2cc(F)ccc2N)C2CCCCC2)cc1OC` (stereo not drawn) [Compound 16ad], the pIC50 under setting [2] was not below 6.00.

On to `Nc1ccc(Cl)cc1C(SCCNC(=O)c1ccccn1)c1ccccc1Cl` (stereo not drawn) [Compound 16m], for which the pIC50 is not below 5.00 under setting [1] and not below 6.00 under setting [2].

`COC(=O)C(c1ccccc1[N+](=O)[O-])c1cccc2ccccc12` (stereo not drawn) [Compound 25d]: the negative logarithm of the IC50 (pIC50) runs as follows: under setting [1], not below 5.00; under setting [2], not below 6.00.

For the molecule `COC(=O)CSC(c1nccs1)c1cc(Cl)ccc1N` (stereo not drawn) [Compound 11u], the negative logarithm of the IC50 (pIC50) under setting [1] was not below 5.00.

Turning to `COC(=O)C(c1cccc(Cl)c1)c1ccccc1[N+](=O)[O-]` (stereo not drawn) [Compound 25a], the negative-log IC50 (pIC50) under setting [1] was not below 5.00.

In the case of `COC(=O)CSC(CCCOCc1ccccc1)c1cc(Cl)ccc1N` (stereo not drawn) [Compound 11an], under setting [1], the pIC50 was not below 5.00.

For the molecule `Cc1ccc(C)c(C(SCc2nc(C)no2)c2cc(Cl)ccc2N)c1` (stereo not drawn) [Compound 14m], under setting [1], the negative logarithm of the IC50 (pIC50) was not below 5.00.

As to `COC(=O)CSC(c1ccccc1)c1cc(Cl)ccc1N` (stereo not drawn) [Compound 11x], under setting [1], the negative-log IC50 (pIC50) is not below 5.00.

`Cc1noc(CSC(c2cc(Cl)ccc2N)c2cccn2C)n1` (stereo not drawn) [Compound 14h]: the pIC50 was not below 5.00 under setting [1] and not below 6.00 under setting [2].

Regarding `Nc1ccc(Cl)cc1C(SCC(=O)NCCO)c1ccccc1Cl` (stereo not drawn) [Compound 13e], the pIC50 under setting [1] is not below 5.00.

As for `COCCCNC(=O)CSC(c1cc(Cl)ccc1N)c1ccccc1Cl` (stereo not drawn) [Compound 13m], the pIC50 runs as follows: under setting [1], not below 5.00; under setting [2], not below 6.00.

`Nc1ccc(Cl)cc1C(SCCNC(=O)c1ccccc1)c1ccccc1Cl` (stereo not drawn) [Compound 16a]: the pIC50 by setting is: under setting [1], not below 5.00; under setting [2], not below 6.00.

Regarding `CC(=O)NCCNC(=O)CSC(c1cc(Cl)ccc1N)c1ccccc1Cl` (stereo not drawn) [Compound 13g], the negative logarithm of the IC50 (pIC50) under setting [1] was not below 5.00 and the negative-log IC50 (pIC50) under setting [2] was not below 6.00.
